The subject of one series is THP-1 cells. As to the kind of experiment: Co-localization competition assay with Bay2402234 (Manders coefficient). Type of series: cell-based, human. The note with it: THP-1 cells, 10 μM, 3 h. The protocol: Colocalization between hDHODH inhibitors and mitochondria was quantified using Manders coefficient (Figure D).
THP-1 cells were incubated for 3 h with hDHODHi 11a and Bay240223410 at 10 μM, either alone or in combination. After incubation, the cells were washed and stained with Red-MitoTracker CMXRos (Thermo Fisher, Carlsbad, CA, USA) at a concentration of 100 nM for 30 min at 37 °C. Cells were imaged with a Leica TCS SP8 confocal system (Leica Microsystems) equipped with 4 excitation lasers (405 Diode, Argon, DPSS561, HeNe633). Images were acquired with a HCX PL APO 63×/1.4 NA oil-immersion objective with a resolution of 81 nm × 81 nm and were processed and analyzed with ImageJ software (Rasband, W.S., U.S. National Institutes of Health, Bethesda, […]). In particular, colocalization was analyzed with JACoP plugin and Manders’ coefficient was calculated

Series [1] in a line: Photophysical characterization (absorption, emission, QY, lifetime). Type of series: physicochemical. The conditions noted are these: in ACN. As to the method:
UV–Vis absorption spectra were recorded on a Cary60 spectrometer. Photoemission spectra, luminescence lifetimes, and quantum yields were acquired with a HORIBA Jobin Yvon IBH Fluorolog-TCSPC spectrofluorometer equipped with a Quanta-φ integrating sphere. […] Emission-decay data were collected in 2048 channels to 10000 counts in the peak channel. IRF was measures using colloidal silica suspension in H2O to scatter light. Data were analyzed with the software DAS6 (TCSPC decay-analysis software) using a nonlinear least-squares method to fit of the decay to a sum of exponentials. The value of χ^2, residuals and the autocorrelation function (Durbin-Watson parameter) were used to determine the quality of the fit. For measurements in the presence of hDHODH, 11a was incubated, at 1 μM concentration in TRIS Buffer 0.1 mM (pH 8) with 0.1% DMSO, alone or with different concentrations of recombinant protein ranging from 31.5 to 504 nM concentration. After 5 min incubation UV–Vis absorption spectra were recorded on a Cary60 spectrophotometer and photoemission spectra were acquired with a HORIBA Jobin Yvon IBH Fluorolog-TCSPC spectrofluorometer with excitation λ of 366 nm and maximum of emission at 500 nm; a.u. data were analyzed with GraphPad Prism using One Site – Specific Binding equation.

Another series in a line: Experimental pKa. Type of series: physicochemical.
Another series addresses hDHODH enzyme GST-tagged (Homo sapiens, UniProt Q02127). The series can be described thus: hDHODH inhibition assay (DCIP reduction).

hDHODH enzyme GST-tagged, sequence (Q02127 whole entry): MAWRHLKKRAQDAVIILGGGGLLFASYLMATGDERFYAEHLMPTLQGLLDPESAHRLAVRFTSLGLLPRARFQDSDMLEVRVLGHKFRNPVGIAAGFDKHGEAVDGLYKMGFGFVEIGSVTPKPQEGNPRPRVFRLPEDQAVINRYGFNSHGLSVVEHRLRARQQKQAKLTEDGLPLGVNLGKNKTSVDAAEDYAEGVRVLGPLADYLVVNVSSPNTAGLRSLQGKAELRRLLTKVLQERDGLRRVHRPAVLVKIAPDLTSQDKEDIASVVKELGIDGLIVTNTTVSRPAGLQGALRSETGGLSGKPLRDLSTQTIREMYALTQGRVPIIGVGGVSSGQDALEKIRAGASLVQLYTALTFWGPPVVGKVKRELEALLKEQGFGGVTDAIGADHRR
Experimental for hDHODH enzyme GST-tagged: The enzyme (around 60 nM) was preincubated for 5 min at 37 °C in Tris-buffer solution (pH 8.0) with coenzyme Q10 (100 μM), tested compounds at different concentrations (final DMSO concentration 0.1% v/v), and DCIP (50 μM). The reaction was initiated by addition of DHO (500 μM) and the reduction was monitored at λ = 650 nm. […] Values are means ± SE of three independent experiments.

Consider `CCn1c(CO)nn(-c2cc(O[C@@H](C)C(F)(F)F)c(C(=O)Nc3c(F)cccc3Cl)cc2F)c1=O` [Bay2402234, reference compound], for which, in the series with THP-1 cells, the “fluorescence at the wavelength specific for 11a” value is “no detectable fluorescence”.
For the compound `Oc1cc2ccccn2n1` [Compound 1, Pyrazolo[1,5-a]pyridin-2-ol], in series [1], the Lifetime was found to be 12 ns, the “QY (luminescence quantum yield)” value was 0.21, the Stokes shift was found to be 7567 cm^–1 and the λabs is given as 310 nm. In series [1], this compound returned a λem of 405 nm. Moreover, the pKa (commonly the negative logarithm of the acid dissociation constant) in the series “Experimental pKa” was roughly 5.
Take `CCOC(=O)c1c(O)nn2ccccc12` [Compound 2, Ethyl 2-hydroxypyrazolo[1,5-a]pyridine-3-carboxylate]: in series [1], the Lifetime amounted to 7 ns, the “QY (luminescence quantum yield)” value was determined as 0.42, the Stokes shift is given as 5139 cm^–1 and the λabs is 313 nm. Also, the λem in series [1] is 373 nm. In the series “Experimental pKa”, the pKa was 5.39.
For the compound `Oc1nn2ccccc2c1-c1ccc2cc(-c3ccccc3)cnc2c1` [Compound 13, 3-(3-Phenylquinolin-7-yl)pyrazolo[1,5-a]pyridin-2-ol], in series [1], the Lifetime is listed as 3.7 ns, the “QY (luminescence quantum yield)” value is given as 0.74, the Stokes shift came to 5288 cm^–1 and the λabs was 370 nm. In series [1], this compound gave a λem of 460 nm. Moreover, the IC50 (in general, the concentration at which inhibition is half-maximal) on hDHODH enzyme GST-tagged turned out to be 33 µM.

For the origin of these results see article PMC12257544, “Fluorescent Isostere (Fluostere) of the Carboxylate: Design of hDHODH Fluorescent Inhibitors as Proof of Concept” (Journal of Medicinal Chemistry, 2025).
